Test results taken from EP0586229A1, “3-Hydroxy-3-(subst-akyl)-pyrrolidines as 5-lipoxygenase inhibitors” (ZENECA LIMITED, priority 1992, dated 1994).

Key:
5-LO [1] = target: T1, 5-LO (Homo sapiens, UniProt P09917); experiment: Test a): in vitro heparinised human blood challenged with calcium ionophore A23187, radioimmunoassay of LTB₄; format: cell-based; conditions: A23187 challenge, read-out: IC₅₀ against LTB₄ in test (a)
T1 construct: incubating a test compound with heparinised human blood, prior to challenge with the calcium ionophore A23187; endogenous in cells; host or cells: heparinised human whole blood (blood cells)
T1 sequence (P09917 1-674): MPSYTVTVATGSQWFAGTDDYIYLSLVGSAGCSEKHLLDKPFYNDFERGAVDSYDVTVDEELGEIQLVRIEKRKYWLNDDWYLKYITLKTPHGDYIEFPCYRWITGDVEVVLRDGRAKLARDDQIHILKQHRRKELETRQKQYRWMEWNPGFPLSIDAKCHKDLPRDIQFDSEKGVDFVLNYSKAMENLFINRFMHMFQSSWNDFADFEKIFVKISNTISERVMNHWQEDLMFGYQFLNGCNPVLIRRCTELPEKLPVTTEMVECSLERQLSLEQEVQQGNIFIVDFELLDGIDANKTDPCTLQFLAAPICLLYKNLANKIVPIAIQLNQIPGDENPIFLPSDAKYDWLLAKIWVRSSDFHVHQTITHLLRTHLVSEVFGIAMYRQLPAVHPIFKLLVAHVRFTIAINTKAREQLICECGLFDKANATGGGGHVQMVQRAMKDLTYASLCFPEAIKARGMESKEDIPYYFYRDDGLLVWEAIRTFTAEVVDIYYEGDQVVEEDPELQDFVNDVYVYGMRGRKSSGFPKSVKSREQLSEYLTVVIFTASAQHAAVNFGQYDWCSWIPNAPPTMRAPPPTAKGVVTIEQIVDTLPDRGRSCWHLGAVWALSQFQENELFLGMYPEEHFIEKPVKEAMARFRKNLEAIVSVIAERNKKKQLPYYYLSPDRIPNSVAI
Description: As stated previously, the compounds of the formula I are inhibitors of the enzyme 5-LO. […] J. Pharmacol. 1985, 84, 34P) which involve the use of a protein-LTB₄ conjugate produced using the procedure of Young et alia (Prostaglandins, 1983, 26(4), 605-613). The effects of a test compound on the enzyme cyclooxygenase (which is involved in the alternative metabolic pathway for arachidonic acid and gives rise to prostaglandins, thromboxanes and related metabolites) may be measured at the same time using the specific radioimmunoassay for thromboxane B₂(TxB₂) described by Carey and Forder (see above). This test provides an indication of the effects of a test compound against 5-LO and also cyclooxygenase in the presence of blood cells and proteins. It permits the selectivity of the inhibitory effect on 5-LO or cyclooxygenase to be assessed. • b) An ex vivo assay system, which is a variation of test a) above, involving administration to a group of rats of a test compound (usually orally as the suspension produced when a solution of the test compound in dimethylsulphoxide is added to carboxymethylcellulose), blood collection, heparinisation, challenge with A23187 and radioimmunoassay of LTB₄ and TxB₂. This test provides an indication of the bioavailability of a test compound as an inhibitor of 5-LO or cyclooxygenase. • c) An in vivo system involving measuring the effects of a test compound administered orally against the liberation of LTB₄ induced by zymosan within an air pouch generated within the subcutaneous tissue of the back of male rats. The rats are anaesthetised and air pouches are formed by the injection of sterile air (20ml). A further injection of air (10ml) is similarly given after 3 days. At 6 days after the initial air injection the test compound is administered (usually orally as the suspension produced when a solution of the test compound in dimethylsulphoxide is added to hydroxypropylmethylcellulose), followed by the intrapouch injection of zymosan (1ml of a 1% suspension in physiological saline). After 3 hours the rats are killed, the air pouches are lavaged with physiological saline, and the specific radioimmunoassay described above is used to assay LTB₄ in the washings. This test provides an indication of inhibitory effects against 5-LO in an inflammatory milieu.

5-LO [2] = experiment: Test c): in vivo zymosan-induced LTB₄ liberation in subcutaneous air pouch; conditions: oral, male rats, 3 hours
Description: As stated previously, the compounds of the formula I are inhibitors of the enzyme 5-LO. […] J. Pharmacol. 1985, 84, 34P) which involve the use of a protein-LTB₄ conjugate produced using the procedure of Young et alia (Prostaglandins, 1983, 26(4), 605-613). The effects of a test compound on the enzyme cyclooxygenase (which is involved in the alternative metabolic pathway for arachidonic acid and gives rise to prostaglandins, thromboxanes and related metabolites) may be measured at the same time using the specific radioimmunoassay for thromboxane B₂(TxB₂) described by Carey and Forder (see above). This test provides an indication of the effects of a test compound against 5-LO and also cyclooxygenase in the presence of blood cells and proteins. It permits the selectivity of the inhibitory effect on 5-LO or cyclooxygenase to be assessed. • b) An ex vivo assay system, which is a variation of test a) above, involving administration to a group of rats of a test compound (usually orally as the suspension produced when a solution of the test compound in dimethylsulphoxide is added to carboxymethylcellulose), blood collection, heparinisation, challenge with A23187 and radioimmunoassay of LTB₄ and TxB₂. […]

Row | SMILES | IC50 (5-LO [1]) | ED₅₀ versus LTB₄ in test (c) (5-LO [2])
1 | CCn1c(=O)ccc2cc(COc3cccc(C4(OC)CCN(CC(F)(F)F)C4)c3)ccc21 (stereo not shown) [Example 5, 3-[3-(1-ethyl-2-oxo-1,2-dihydroquinolin-6-ylmethoxy)phenyl]-3-methoxy-1-(2,2,2-trifluoroethyl)pyrrolidine] | 90 nM | 
2 | COC1(c2cccc(OCc3ccc4ccccc4c3)c2)CCN(C)C1 (stereo not shown) [Example 1, 3-methoxy-1-methyl-3-[3-(naphth-2-ylmethoxy)phenyl]pyrrolidine] | 210 nM | 
3 | C#CCN1CCC(OC)(c2cccc(OCc3ccc4ccccc4c3)c2)C1 (stereo not shown) [Example 4, 3-methoxy-3-[3-(naphth-2-ylmethoxy)phenyl]-1-(prop-2-ynyl)pyrrolidine] | 60 nM | 
4 | COC1(c2cc(F)cc(Sc3ccc(C(C)=NO)cc3)c2)CCN(CC(F)(F)F)C1 (stereo not shown) [Example 32, 3-{5-fluoro-3-[4-(1-hydroxyiminoethyl)phenylthio]phenyl}-3-methoxy-1-(2,2,2-trifluoroethyl)pyrrolidine] | 40 nM | approximately 0.5 mg/kg
5 | COC1(c2cc(F)cc(Sc3ccc4c(c3)CCC(=O)N4C)c2)CCN(CC(F)(F)F)C1 (stereo not shown) [Example 6, 3-[5-fluoro-3-(1-methyl-2-oxo-1,2,3,4-tetrahydroquinolin-6-ylthio)phenyl]-3-methoxy-1-(2,2,2-trifluoroethyl)pyrrolidine] | 30 nM | approximately 1.5 mg/kg
